Assay results as given in patent US20250170112A1, “ADENOSINE LIGANDS FOR THE TREATMENT OF NEUROLOGICAL DISORDERS” (Lucy Therapeutics, Inc., priority 2022, published 2025).

Assays:
[1] = target: T1, human Adenosine A1 receptor (Homo sapiens, UniProt P30542); assay: GTPγS scintillation proximity assay, agonist testing; type: biochemical; details: agonist activity; membrane extracts of CHO-K1 cells expressing recombinant human A1; read-out: A1AR EC50
T1 construct: host or cells: CHO-K1
T1 sequence (P30542 1-326): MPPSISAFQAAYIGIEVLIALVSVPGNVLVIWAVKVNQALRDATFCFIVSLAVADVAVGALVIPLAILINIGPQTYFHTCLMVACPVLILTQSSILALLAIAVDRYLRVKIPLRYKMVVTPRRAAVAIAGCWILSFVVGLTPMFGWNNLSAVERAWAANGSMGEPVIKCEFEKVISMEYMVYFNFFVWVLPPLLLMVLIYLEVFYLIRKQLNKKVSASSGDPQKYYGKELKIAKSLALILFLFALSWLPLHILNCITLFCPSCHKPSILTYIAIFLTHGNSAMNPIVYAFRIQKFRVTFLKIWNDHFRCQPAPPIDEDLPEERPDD
Procedure, shortened: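 Agonist-stimulated [35S]GTPγS binding to membranes of CHO-K1 cells expressing recombinant human A1 receptor, in 20 mM HEPES pH 7.4, 100 mM NaCl, 10 μg/mL saponin, with receptor-optimized MgCl2 and GDP. GTPγ[35S] 0.1 nM final with WGA SPA beads; 1 h at room temperature, then scintillation counting.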

human A2B = target: T2, human A2B (Homo sapiens, UniProt P29275); assay: cAMP HTRF assay for Gs coupled receptor, agonist test; type: cell-based; details: agonist activity; HEK293 cells expressing recombinant human A2B; read-out: A2BAR EC50
T2 construct: expressed in transfected cells; host or cells: HEK293
T2 sequence (P29275 1-332): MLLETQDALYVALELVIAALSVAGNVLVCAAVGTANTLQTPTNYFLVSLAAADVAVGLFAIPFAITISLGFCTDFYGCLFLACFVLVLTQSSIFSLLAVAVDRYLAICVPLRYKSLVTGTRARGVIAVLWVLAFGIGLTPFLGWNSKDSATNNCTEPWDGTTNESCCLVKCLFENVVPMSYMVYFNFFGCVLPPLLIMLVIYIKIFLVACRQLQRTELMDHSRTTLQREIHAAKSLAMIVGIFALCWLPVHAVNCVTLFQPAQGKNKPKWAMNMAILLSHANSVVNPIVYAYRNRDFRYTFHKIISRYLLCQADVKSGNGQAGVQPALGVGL
Procedure, shortened: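 Recombinant cells were incubated 30 min at room temperature with increasing agonist concentrations. Lysis buffer with cAMP-d2 and anti-cAMP cryptate was added, with 1 h at room temperature before the HTRF fluorescence ratio was read. Reference compounds were run in parallel.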

| EC50 [1] [nM] | EC50 (human A2B) [nM] | SMILES |
| --- | --- | --- |
| 75.2 | > 10000 | N#Cc1c(SCC2COC2)nc(N2CC(O)C2)c(C#N)c1-c1ccc(OCCO)cc1 [Compound 274] |
| 73.2 | > 10000 | N#Cc1c(SCC2COC2)nc(N2CCC2)c(C#N)c1-c1ccc(OC2COC2)cc1 [Compound 293] |
| > 10000 | 5570 | N#Cc1c(N)nc(SCC2COC2)c(C#N)c1-c1ccc(OC2CCCOC2)cc1 (stereo not shown) [Compound 308] |
| 32.1 | > 10000 | CN(C)c1nc(SCC2COC2)c(C#N)c(-c2ccc(OC3COC3)cc2)c1C#N [Compound 318] |
| 78.5 | > 10000 | N#Cc1c(N)nc(SCC2COC2)c(C#N)c1-c1ccc(O[C@H]2C[C@H](O)C2)cc1 [Compound 303] |
| > 10000 | > 10000 | COCCOc1ccc(-c2c(C#N)c(OC)nc(SCc3cccnc3)c2C#N)cc1 [Compound 283] |
| 3.38 | 33.7 | CNc1nc(SCc2cccnc2)c(C#N)c(-c2ccc(OC(F)(F)CO)cc2)c1C#N [Compound 260] |
| 205 | > 10000 | COCCOc1ccc(-c2c(C#N)c(SCC3COC3)nc(N3CC(O)C3)c2C#N)cc1 [Compound 270] |

Continued, compound first:

| SMILES | EC50 [1] [nM] | EC50 (human A2B) [nM] |
| --- | --- | --- |
| N#Cc1c(N)nc(SCc2cccnn2)c(C#N)c1-c1ccc(OCCO)cc1 [Compound 178] | 1.5 | 0.06 |
| COCCOc1ccc(-c2c(C#N)c(SCC3COC3)nc(N3CCC3)c2C#N)cc1 [Compound 62] | 350 | ≥ 10000 |
| COCCOc1ccc(-c2c(C#N)c(N)nc(SCC(C)O)c2C#N)cc1 (stereo not shown) [Compound 127] | 91 | > 10000 |
| N#Cc1c(SCc2cccnc2)nc(N2CC(F)C2)c(C#N)c1-c1ccc(OC(F)(F)CO)cc1 [Compound 255] | > 10000 | 435 |
| Cc1ncccc1CSc1nc(N2CCCC2)c(C#N)c(-c2ccc(OCCO)cc2)c1C#N [Compound 76] | > 10000 | 4370 |
| N#Cc1c(N)nc(SCC2CCCOC2)c(C#N)c1-c1ccc(OCCO)cc1 (stereo not shown) [Compound 13] | > 10000 | 272 |
| N#Cc1c(N)nc(SCc2cccnc2)c(C#N)c1-c1ccc(O[C@H]2C[C@@H](O)C2)cc1 [Compound 296, 2-Amino-4-(4-((1s,3s)-3-hydroxycyclobutoxy)phenyl)-6-((pyridin-3-ylmethyl)thio)pyridine-3,5-dicarbonitrile] | 20.6 | 2.47 |
| N#Cc1c(N)nc(SCCC2CCO2)c(C#N)c1-c1ccc(OCCO)cc1 (stereo not shown) [Compound 10] | > 10000 | 3760 |
| N#Cc1c(N)nc(SCc2cccnc2)c(C#N)c1-c1ccc(OC2COC2)cc1 [Compound 66] | 2.5 | 0.2 |
| N#Cc1c(N)nc(SCC2CCCO2)c(C#N)c1-c1ccc(OCCO)cc1 (stereo not shown) [Compound 141] | 569 | 149 |
| COCCOc1ccc(-c2c(C#N)c(N)nc(SCc3ccnc4[nH]ccc34)c2C#N)cc1 [Compound 4] | > 10000 | 2410 |
| COCCOc1ccc(-c2c(C#N)c(N)nc(SCc3ccc4ccoc4c3)c2C#N)cc1 [Compound 213] | > 10000 | > 10000 |
| CNc1nc(SCC2COC2)c(C#N)c(-c2ccc(OC3COC3)cc2)c1C#N [Compound 230] | 5.2 | > 10000 |
| COCCSc1nc(N)c(C#N)c(-c2ccc(OCCO)cc2)c1C#N [Compound 151] | 61 | 28 |
| COCCOc1ccc(-c2c(C#N)cnc(SCc3cccnc3)c2C#N)cc1 [Compound 83, 4-[4-(2-Methoxyethoxy)phenyl]-2-(3-pyridylmethylthio)-pyridine-3,5-dicarbonitrile] | 282 | > 10000 |
| CN(C)C(=O)CSc1nc(N)c(C#N)c(-c2ccc(OCCO)cc2)c1C#N [Compound 138] | 891 | 2460 |
| N#Cc1c(N)nc(OCc2cccnc2)c(C#N)c1-c1ccc(OCCO)cc1 [Compound 159] | 41 | 3.3 |
| COCCOc1ccc(-c2c(C#N)c(SCc3cccnc3)nc(C3CC3)c2C#N)cc1 [Compound 46] | 110 | > 10000 |
